Measurements reported in PubChem BioAssay (NCI).
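Cells were grown in 96-well plates and exposed to each compound for 48 hours at five concentrations; endpoints were interpolated linearly between bracketing concentrations, or set to the highest concentration if not reached. GI50 marks 50% less growth. At the TGI there is no net growth.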

Experiments:
Experiment in all cases: NCI anticancer screen, dose series, 48 h
OVCAR-4 ovarian = test system: OVCAR-4 ovarian
HOP-62 NSCLC = test system: HOP-62 NSCLC
HCC-2998 colon = test system: HCC-2998 colon
T-47D breast = test system: T-47D breast
HOP-92 NSCLC = test system: HOP-92 NSCLC
SNB-19 CNS = test system: SNB-19 CNS
SNB-75 CNS = test system: SNB-75 CNS
MDA-MB-435 = test system: MDA-MB-435
RXF 393 renal = test system: RXF 393 renal
BT-549 breast = test system: BT-549 breast
SF-295 CNS = test system: SF-295 CNS
TK-10 renal = test system: TK-10 renal
DU-145 prostate = test system: DU-145 prostate
SK-OV-3 ovarian = test system: SK-OV-3 ovarian
A498 renal = test system: A498 renal
A549 NSCLC = test system: A549 NSCLC
NCI/ADR-RES ovarian = test system: NCI/ADR-RES ovarian
HT29 colon = test system: HT29 colon
K-562 leukemia = test system: K-562 leukemia
HCT-15 colon = test system: HCT-15 colon
MALME-3M melanoma = test system: MALME-3M melanoma
ACHN renal = test system: ACHN renal
SK-MEL-2 melanoma = test system: SK-MEL-2 melanoma
HS 578T breast = test system: HS 578T breast
COLO 205 colon = test system: COLO 205 colon
EKVX NSCLC = test system: EKVX NSCLC
OVCAR-3 ovarian = test system: OVCAR-3 ovarian
786-0 renal = test system: 786-0 renal
CAKI-1 renal = test system: CAKI-1 renal
MOLT-4 leukemia = test system: MOLT-4 leukemia
NCI-H522 lung = test system: NCI-H522 lung
NCI-H226 lung = test system: NCI-H226 lung
SF-539 CNS = test system: SF-539 CNS
IGROV1 ovarian = test system: IGROV1 ovarian
HCT-116 colon = test system: HCT-116 colon
CCRF-CEM leukemia = test system: CCRF-CEM leukemia
SW-620 colon = test system: SW-620 colon
HL-60(TB) leukemia = test system: HL-60(TB) leukemia
UACC-62 melanoma = test system: UACC-62 melanoma
NCI-H23 lung = test system: NCI-H23 lung
PC-3 prostate = test system: PC-3 prostate
MDA-MB-231 breast = test system: MDA-MB-231 breast
RPMI-8226 leukemia = test system: RPMI-8226 leukemia
OVCAR-5 ovarian = test system: OVCAR-5 ovarian
SK-MEL-5 melanoma = test system: SK-MEL-5 melanoma
SN12C renal = test system: SN12C renal
U251 CNS = test system: U251 CNS
M14 melanoma = test system: M14 melanoma
OVCAR-8 ovarian = test system: OVCAR-8 ovarian
KM12 colon = test system: KM12 colon
UACC-257 melanoma = test system: UACC-257 melanoma
LOX IMVI melanoma = test system: LOX IMVI melanoma
UO-31 renal = test system: UO-31 renal
SK-MEL-28 melanoma = test system: SK-MEL-28 melanoma

Cc1cn2cc(-c3ccc4c(c3)CC(=O)N4)nc2s1
GI50 (OVCAR-4 ovarian): > 100 µM
TGI (OVCAR-4 ovarian): > 100 µM
GI50 (HOP-62 NSCLC): 64.7 µM
TGI (HOP-62 NSCLC): > 100 µM
GI50 (HCC-2998 colon): 46.2 µM
TGI (HCC-2998 colon): > 100 µM
GI50 (T-47D breast): 43.4 µM
TGI (T-47D breast): > 100 µM
GI50 (HOP-92 NSCLC): > 100 µM
TGI (HOP-92 NSCLC): > 100 µM
GI50 (SNB-19 CNS): > 100 µM
TGI (SNB-19 CNS): > 100 µM
GI50 (SNB-75 CNS): > 100 µM
TGI (SNB-75 CNS): > 100 µM
GI50 (MDA-MB-435): 91 µM
TGI (MDA-MB-435): > 100 µM
GI50 (RXF 393 renal): > 100 µM
TGI (RXF 393 renal): > 100 µM
GI50 (BT-549 breast): > 100 µM
TGI (BT-549 breast): > 100 µM
GI50 (SF-295 CNS): > 100 µM
TGI (SF-295 CNS): > 100 µM
GI50 (TK-10 renal): > 100 µM
TGI (TK-10 renal): > 100 µM
GI50 (DU-145 prostate): > 100 µM
TGI (DU-145 prostate): > 100 µM
GI50 (SK-OV-3 ovarian): > 100 µM
TGI (SK-OV-3 ovarian): > 100 µM
GI50 (A498 renal): > 100 µM
TGI (A498 renal): > 100 µM
GI50 (A549 NSCLC): > 100 µM
TGI (A549 NSCLC): > 100 µM
GI50 (NCI/ADR-RES ovarian): > 100 µM
TGI (NCI/ADR-RES ovarian): > 100 µM
GI50 (HT29 colon): 85.5 µM
TGI (HT29 colon): > 100 µM
GI50 (K-562 leukemia): 61.9 µM
TGI (K-562 leukemia): > 100 µM
GI50 (HCT-15 colon): 67 µM
TGI (HCT-15 colon): > 100 µM
GI50 (MALME-3M melanoma): > 100 µM
TGI (MALME-3M melanoma): > 100 µM
GI50 (ACHN renal): 49.7 µM
TGI (ACHN renal): > 100 µM
GI50 (SK-MEL-2 melanoma): > 100 µM
TGI (SK-MEL-2 melanoma): > 100 µM
GI50 (HS 578T breast): > 100 µM
TGI (HS 578T breast): > 100 µM
GI50 (COLO 205 colon): > 100 µM
TGI (COLO 205 colon): > 100 µM
GI50 (EKVX NSCLC): 79.2 µM
TGI (EKVX NSCLC): > 100 µM
GI50 (OVCAR-3 ovarian): > 100 µM
TGI (OVCAR-3 ovarian): > 100 µM
GI50 (786-0 renal): > 100 µM
TGI (786-0 renal): > 100 µM
GI50 (CAKI-1 renal): > 100 µM
TGI (CAKI-1 renal): > 100 µM
GI50 (MOLT-4 leukemia): 50.7 µM
TGI (MOLT-4 leukemia): > 100 µM
GI50 (NCI-H522 lung): 99.6 µM
TGI (NCI-H522 lung): > 100 µM
GI50 (NCI-H226 lung): > 100 µM
TGI (NCI-H226 lung): > 100 µM
GI50 (SF-539 CNS): > 100 µM
TGI (SF-539 CNS): > 100 µM
GI50 (IGROV1 ovarian): > 100 µM
TGI (IGROV1 ovarian): > 100 µM
GI50 (HCT-116 colon): 70.1 µM
TGI (HCT-116 colon): > 100 µM
GI50 (CCRF-CEM leukemia): > 100 µM
TGI (CCRF-CEM leukemia): > 100 µM
GI50 (SW-620 colon): 34 µM
TGI (SW-620 colon): > 100 µM
GI50 (HL-60(TB) leukemia): > 100 µM
TGI (HL-60(TB) leukemia): > 100 µM
GI50 (UACC-62 melanoma): 33.7 µM
TGI (UACC-62 melanoma): > 100 µM
GI50 (NCI-H23 lung): > 100 µM
TGI (NCI-H23 lung): > 100 µM
GI50 (PC-3 prostate): > 100 µM
TGI (PC-3 prostate): > 100 µM
GI50 (MDA-MB-231 breast): > 100 µM
TGI (MDA-MB-231 breast): > 100 µM
GI50 (RPMI-8226 leukemia): 35.9 µM
TGI (RPMI-8226 leukemia): > 100 µM
GI50 (OVCAR-5 ovarian): > 100 µM
TGI (OVCAR-5 ovarian): > 100 µM
GI50 (SK-MEL-5 melanoma): 94 µM
TGI (SK-MEL-5 melanoma): > 100 µM
GI50 (SN12C renal): > 100 µM
TGI (SN12C renal): > 100 µM
GI50 (U251 CNS): > 100 µM
TGI (U251 CNS): > 100 µM
GI50 (M14 melanoma): > 100 µM
TGI (M14 melanoma): > 100 µM
GI50 (OVCAR-8 ovarian): > 100 µM
TGI (OVCAR-8 ovarian): > 100 µM
GI50 (KM12 colon): 44.2 µM
TGI (KM12 colon): > 100 µM
GI50 (UACC-257 melanoma): > 100 µM
TGI (UACC-257 melanoma): > 100 µM
GI50 (LOX IMVI melanoma): 20.5 µM
TGI (LOX IMVI melanoma): > 100 µM
GI50 (UO-31 renal): > 100 µM
TGI (UO-31 renal): > 100 µM
GI50 (SK-MEL-28 melanoma): > 100 µM
TGI (SK-MEL-28 melanoma): > 100 µM
